Experimental findings from PubChem BioAssay (NCI) are described below.

Holding throughout (experiment): NCI-60 cell line screen, 48 h
Assay [1] relates to MDA-MB-435.
The test system of assay [2] is UO-31 renal.
Assay [3] has as its system SW-620 colon.
In assay [4] the test system is MCF7 breast.
The test system of assay [5] is HS 578T breast.
The test system of assay [6] is CCRF-CEM leukemia.
Assay [7] deals with EKVX NSCLC.
The test system of assay [8] is SK-MEL-28 melanoma.
Assay [9] has as its system OVCAR-3 ovarian.
Assay [10] has as its system ACHN renal.

SMILES strings stand for the structures.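 The compound was tested at five concentrations on cells cultured in 96-well plates, with a 48-hour exposure period. GI50 is the concentration that inhibits growth by half. The concentration for full growth arrest is given as TGI.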

Regarding `CCOC(=O)c1cn2c(n1)sc1cc([N+](=O)[O-])ccc12`, the TGI in [1], in assay [2], in assay [3], in assay [4], in assay [5] and in assay [6] was above 100 µM in each case. In addition, the TGI in assay [7], in assay [8], in assay [9] and in assay [10] was above 100 µM each time.
With `C=C1C(=O)O[C@H]2[C@@H]3O[C@@](C)(CC/C=C(\C)CCC[C@@H]2C)[C@H](O)C[C@@H]13`, the TGI in assay [1] is 53.6 µM; in [2], 11.9 µM; in assay [3] it was above 100 µM; in assay [4], 15.6 µM; in [5], 25.9 µM; in [6] it was 81.5 µM. The TGI was above 100 µM in assay [7], 38.8 µM in assay [8], 9.54 µM in assay [9] and 6.25 µM in [10].
With `CN(C)CCCCN1c2ccccc2Sc2ccc(N=[N+]=[N-])cc21`, the TGI is 4.36 µM in assay [1]; 19 µM in assay [2]; 16.8 µM in assay [3]; 5.26 µM in assay [4]; 18.4 µM in assay [5]; 8.39 µM in assay [6]. The TGI in [7] stood at 26.3 µM; in assay [8] it was 3.6 µM; in assay [9], 20 µM; in assay [10], 12.3 µM.
For `CCOC(=O)c1sc(N)nc1N1CCCC1`, the TGI in [1], in assay [2], in assay [3], in assay [4], in assay [5] and in [6] was above 100 µM each time. Further, the TGI in assay [7], in assay [8], in [9] and in [10] was above 100 µM each time.
For the compound `O=c1[nH]c2ccccc2c(=O)c2cc3ccccc3cc12`, the TGI in [1] is above 100 µM; in assay [2], above 100 µM; in assay [3] it was above 100 µM; in [4] it was above 100 µM; in [5] it was 70.9 µM; in assay [6], above 100 µM. The TGI in assay [7], in assay [8], in [9] and in [10] was above 100 µM throughout.
In the case of `COc1ccccc1Nc1nc(N)nc(N)c1N`, the TGI in assay [1] was 82.6 µM; in assay [2], above 100 µM; in assay [3] it was 72 µM; in [4] it was above 100 µM; in assay [5] it was above 100 µM; in assay [6], 50.8 µM. For the same compound, the TGI in assay [7], in assay [8], in assay [9] and in assay [10] was above 100 µM in each case.
As for `CC(C)c1cc(C(C)C)c(S(=O)(=O)N/N=C2\CC3CCC2(C)C3(C)C)c(C(C)C)c1` (stereo not given), the TGI in assay [1] is above 100 µM; in [2], above 100 µM; in assay [3], above 100 µM; in [4], 30.7 µM; in assay [5], above 100 µM; in [6] it was 22.8 µM. Besides, the TGI in assay [7] is 71.5 µM; in assay [8], above 100 µM; in [9], above 100 µM; in assay [10] it was above 100 µM.
With `COc1cc(/C=C2\C(=O)Nc3ccc(O)cc32)cc(OC)c1OC`, the GI50 is 3.96 µM in [1]; 12.1 µM in assay [2]; 10.5 µM in assay [3]; 8.59 µM in [4]; 13.5 µM in assay [5]; 4.34 µM in assay [6]. Further, the GI50 in assay [7] was 18.6 µM; in assay [8], 14.1 µM; in assay [9], 6.44 µM; in [10], 15.9 µM. The TGI in [1] is 17.1 µM; in assay [2], 33.3 µM; in assay [3], above 100 µM; in assay [4] it was above 100 µM; in assay [5] it was above 100 µM; in [6], 34.4 µM. Moreover, the TGI in assay [7] is 59 µM; in [8] it was 30.2 µM; in [9], 28.3 µM; in assay [10], 78.6 µM.
For `CCc1c(N=[N+]=[N-])c2ccccc2oc1=O`, the TGI in [1], in assay [2], in assay [3], in assay [4], in assay [5] and in [6] was above 100 µM each time. Also, the TGI in [7], in assay [8], in assay [9] and in assay [10] was above 100 µM throughout.
As to `NCCCc1nonc1C(=O)O`, the TGI in [1], in assay [2], in [3], in assay [4], in [5] and in [6] was above 100 µM throughout. Moreover, the TGI in assay [7], in assay [8], in assay [9] and in assay [10] was above 100 µM in each case.
Turning to `COc1ccc(C2OC2C(=O)C23CC4CC(CC(C4)C2)C3)cc1` (stereo not given), the TGI in [1] was above 100 µM; in [2] it was above 100 µM; in assay [3], above 100 µM; in assay [4], above 100 µM; in [5], 50.4 µM; in assay [6] it was above 100 µM. Moreover, the TGI in assay [7], in assay [8], in assay [9] and in assay [10] was above 100 µM in each case.
As to `C(#C[C@@]12CCC[C@@H]1NCO2)c1ccc2c(c1)OCO2`, the TGI in assay [1], in [2], in [3], in assay [4], in assay [5] and in [6] was above 100 µM each time. Moreover, the TGI in assay [7], in assay [8], in assay [9] and in assay [10] was above 100 µM in each case.
In the case of `COc1ccc(CCN2C(=O)C(=O)C(C(=O)c3ccccc3)C2c2ccccc2)cc1OC` (stereo not given), the TGI in assay [1], in assay [2], in assay [3], in assay [4], in assay [5] and in [6] was above 100 µM throughout. Also, the TGI in assay [7], in [8], in [9] and in assay [10] was above 100 µM each time.
In the case of `O=c1cc(O)c1=O`, the TGI in assay [1], in [2], in assay [3], in [4], in assay [5] and in assay [6] was above 100 µM each time. Further, the TGI in assay [7], in assay [8], in [9] and in assay [10] was above 100 µM each time.
Consider `NS(=O)(=O)c1ccc(NNc2c3ccccc3nc3c(C(=O)Nc4ccc(S(N)(=O)=O)cc4)cccc23)cc1`, for which the TGI in [1] was above 100 µM; in assay [2], above 100 µM; in [3] it was above 100 µM; in assay [4], above 100 µM; in assay [5], above 100 µM; in assay [6], 80.3 µM. Also, the TGI in [7], in assay [8], in [9] and in assay [10] was above 100 µM in each case.
Consider `COc1cc(OC)cc(Oc2nc3ccc(C(F)(F)F)cc3nc2-c2ccccc2)c1`, for which the TGI in assay [1], in [2], in assay [3], in assay [4], in assay [5] and in assay [6] was above 100 µM throughout. Besides, the TGI in [7], in assay [8], in [9] and in assay [10] was above 100 µM in each case.
Regarding `CC(=O)OCC1OC(NC(=S)Nn2c(-c3ccccc3)nc3ccccc3c2=O)C(OC(C)=O)C(OC(C)=O)C1OC(C)=O` (stereo not given), the TGI in [1], in assay [2], in assay [3], in [4], in [5] and in assay [6] was above 100 µM throughout. The TGI in assay [7], in [8], in assay [9] and in assay [10] was above 100 µM in each case.
On to `CCO/C=N\C1=C(C#N)SC2=N/C(=C\c3ccco3)C(=O)N21`, for which the TGI in [1], in assay [2], in [3], in assay [4], in assay [5] and in assay [6] was above 100 µM in each case. Further, the TGI in assay [7], in [8], in [9] and in assay [10] was above 100 µM each time.
In the case of `COC(=O)[C@@H](N1C(=O)c2ccccc2C1=O)C1(C)CC(Cl)=NO1` (stereo not given in full), the TGI was above 100 µM in [1]; above 100 µM in assay [2]; above 100 µM in assay [3]; above 100 µM in assay [4]; 75.3 µM in [5]; above 100 µM in assay [6]. Also, the TGI in assay [7], in [8], in [9] and in [10] was above 100 µM each time.
With `COc1cc(N(CCC#N)CCC#N)ccc1/C(N=Nc1cccc([N+](=O)[O-])c1)=N\NC(=O)c1ccc(C)cc1`, the TGI was above 100 µM in [1]; above 100 µM in assay [2]; above 100 µM in assay [3]; above 100 µM in assay [4]; above 100 µM in [5]; 99.2 µM in assay [6]. In addition, the TGI in assay [7] was 63.1 µM; in assay [8], above 100 µM; in assay [9], above 100 µM; in assay [10], above 100 µM.
For the compound `Cc1c(CNc2ccc(Cl)c(Cl)c2Cl)cnc2nc(N)nc(N)c12`, the TGI is above 48.1 µM in assay [1]; above 100 µM in assay [2]; above 70.1 µM in assay [3]; above 46.7 µM in assay [4]; 65.6 µM in [5]; 6.55 µM in assay [6]. Moreover, the TGI in assay [7] was above 69 µM; in [8] it was 31.7 µM; in [9], above 51.3 µM; in assay [10], above 48.8 µM.
Regarding `O=c1oc2cc(O)ccc2c(O)c1C(c1ccc(/C=C/c2ccccc2)cc1)c1c(O)c2ccc(O)cc2oc1=O`, the TGI in [1], in assay [2], in [3], in assay [4], in [5] and in [6] was above 100 µM throughout. Moreover, the TGI in assay [7] was above 100 µM; in assay [8], 60.5 µM; in assay [9], above 100 µM; in assay [10], above 100 µM.
As for `C/C(=C\COP(=O)(O)CP(=O)(O)O)CC/C=C(\C)CNc1ccccc1`, the TGI in [1], in assay [2], in assay [3], in assay [4], in [5] and in assay [6] was above 100 µM each time. For the same compound, the TGI in assay [7] was 30.3 µM; in [8], above 100 µM; in assay [9], above 100 µM; in assay [10], above 100 µM.
For the compound `C/C(=N\NC(N)=O)C(CN1CCOCC1)C(c1ccccc1)c1c(O)c2ccccc2oc1=O` (stereo not given), the TGI in assay [1], in assay [2], in assay [3], in assay [4], in [5] and in [6] was above 100 µM in each case. Moreover, the TGI in [7], in [8], in [9] and in assay [10] was above 100 µM in each case.
Consider `CC(C)=CCN1c2ccccc2[C@@]2(CC=C(C)C)CCN(C)[C@@H]12`, for which the TGI is 54.3 µM in assay [1]; 41.8 µM in [2]; above 100 µM in assay [3]; 34.4 µM in assay [4]; 45.8 µM in [5]; above 100 µM in assay [6]. For the same compound, the TGI in [7] is 64.3 µM; in assay [8] it was above 100 µM; in [9], 57.3 µM; in [10], above 100 µM.
`COc1cccc(O)c1-c1cc(=O)c2c(O)c(OC)c(OC)c(OC)c2o1`: the TGI in [1] is 55.4 µM; in [2], above 100 µM; in assay [3], above 100 µM; in assay [4], 77.7 µM; in assay [5], above 100 µM; in assay [6], above 100 µM. Besides, the TGI in assay [7] was above 100 µM; in [8], above 100 µM; in assay [9], 66.3 µM; in assay [10], above 100 µM.
